Counter-ions that a name gives are not always drawn.

Hsp82, sequence (P02829 whole entry): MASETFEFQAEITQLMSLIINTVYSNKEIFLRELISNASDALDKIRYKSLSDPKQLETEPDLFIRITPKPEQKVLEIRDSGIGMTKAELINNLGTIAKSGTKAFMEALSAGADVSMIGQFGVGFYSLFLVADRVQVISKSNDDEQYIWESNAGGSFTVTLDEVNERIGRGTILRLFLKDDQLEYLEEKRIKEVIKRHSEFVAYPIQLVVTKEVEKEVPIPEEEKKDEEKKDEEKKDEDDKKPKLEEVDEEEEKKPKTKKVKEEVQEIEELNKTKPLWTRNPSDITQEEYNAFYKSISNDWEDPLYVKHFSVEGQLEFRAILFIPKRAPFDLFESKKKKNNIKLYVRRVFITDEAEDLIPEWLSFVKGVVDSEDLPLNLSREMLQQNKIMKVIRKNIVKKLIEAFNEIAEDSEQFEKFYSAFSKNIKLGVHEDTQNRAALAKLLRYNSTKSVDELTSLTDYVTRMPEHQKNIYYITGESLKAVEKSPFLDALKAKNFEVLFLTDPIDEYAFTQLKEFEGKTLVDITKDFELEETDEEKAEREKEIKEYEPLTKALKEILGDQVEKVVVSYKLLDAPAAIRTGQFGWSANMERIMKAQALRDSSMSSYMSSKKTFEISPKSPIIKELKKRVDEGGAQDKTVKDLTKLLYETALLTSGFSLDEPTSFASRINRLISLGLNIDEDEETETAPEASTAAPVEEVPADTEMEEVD

The assay concerns the target Hsp82 (Saccharomyces cerevisiae, UniProt P02829). The assay can be described thus: PK/LDH enzyme coupling test of the ATPase activity of Hsp82 (NADH decrease at 340 nm). The assay is classed as biochemical. To be noted: 1 μM Hsp82, 250 μM ATP, 37° C., pyruvate kinase/lactate dehydrogenase coupling, read-out: Hsp82 ATPase IC50. From the text:
The formation of ADP due to the ATPase activity of Hsp82 was utilized for developing another method of evaluating the enzymatic activity of this enzyme by application of an enzyme coupling system employing pyruvate kinase (PK) and lactate dehydrogenase (LDH). In this spectrophotometric method of the kinetic type, the PK catalyses the formation of ATP and of pyruvate starting from phosphoenol-pyruvate (PEP) and the ADP produced by HSP82. The pyruvate that formed, an LDH substrate, is then converted to lactate in the presence of NADH. In this case, the decrease in the concentration of NADH, measured by the decrease in absorbance at wavelength of 340 nm, is proportional to the concentration of ADP produced by HSP82. […] This mixture is preincubated at 37° C. for 30 min before adding 3.77 units of LDH and 3.77 units of PK. The reaction is started by adding the product to be evaluated, in variable concentrations, and of Hsp82, at a concentration of 1 μM. The enzymatic activity of Hsp82 is then measured continuously in a microplate reader at 37° C., at wavelength of 340 nm. The initial reaction rate is found by measuring the slope of the tangent at the origin of the recorded curve. The enzymatic activity is expressed as μM of ADP formed per minute. The effect of the various products tested is expressed as percentage of inhibition of ATPase activity, using the following codes: • A: […]
Usually IC50 stands for the concentration that inhibits the measured activity by half. For the compound `O=C(C=C1c2ccccc2-c2c1cccc2-c1nc2cnccc2[nH]1)Nc1cccnc1` (mixture of isomers) [Example 17, 2-[4-(3H-imidazo[4,5-c]pyridin-2-yl)-fluoren-(9E,Z)-ylidene]-N-pyridin-3-yl-acetamide], the concentration for half-maximal inhibition (IC50) lay within 1 to 10 µM.
`CC(=O)Nc1cc(C(=O)NC2c3ccccc3-c3c(-c4nc5cnccc5[nH]4)cccc32)ccn1` (racemic) [Example 66, 2-acetylamino-N-[4-(3H-imidazo[4,5-c]pyridin-2-yl)-9H-fluoren-9(R,S)-yl]-isonicotinamide]: the IC50 is < 1 µM.
Next, `O=C(NC1c2ccccc2-c2c(-c3nc4ccncc4[nH]3)cccc21)c1cc(O)nc2ccccc12` (racemic) [Example 31, [4-(3H-imidazo[4,5-c]pyridin-2-yl)-9H-fluoren-9(R,S)-yl]amide of 2-hydroxy-quinoline-4-carboxylic acid]: 1 to 10 µM.
Consider `O=C(N[C@H]1c2ccccc2-c2c(-c3nc4ccncc4[nH]3)cccc21)c1cccc2ncccc12` (single isomer, unassigned) [Example 14B], for which the half-inhibitory concentration (IC50) fell in the range of 10 to 100 µM.
With `O=C(OC1c2ccccc2-c2c(-c3nc4ccncc4[nH]3)cccc21)c1cccc2ncccc12` (racemic) [Example 124, 4-(3H-imidazo[4,5-c]pyridin-2-yl)-9H-fluoren-9(R,S)-yl of 5-quinolinecarboxylic acid] the figure was 1 to 10 µM; with `Nc1cnccc1C(=O)NC1c2ccccc2-c2c(-c3nc4ccncc4[nH]3)cccc21` (racemic) [Example 104, 3-amino-N-[4-(3H-imidazo[4,5-c]pyridin-2-yl)-9H-fluoren-9(R,S)-yl]-isonicotinamide], < 1 µM; with `O=C(NC1c2ccccc2-c2c(-c3nc4ccncc4[nH]3)cccc21)c1ccnnc1` (stereo not shown) [Example 86, [4-(3H-imidazo[4,5-c]pyridin-2-yl)-9H-fluoren-9-yl]amide of pyridazine-4-carboxylic acid], 1 to 10 µM.
Next, `O=C(NC1c2ccccc2-c2c(-c3nc4ccncc4[nH]3)cccc21)c1ccc2[nH]ncc2c1` (racemic) [Example 45, [4-(3H-imidazo[4,5-c]pyridin-2-yl)-9H-fluoren-9(R,S)-yl]amide of 1H-indazole-5-carboxylic acid]: 1 to 10 µM.
Next, `O=C(NC1c2ccccc2-c2c(-c3nc4ccncc4[nH]3)cccc21)c1ccnc(F)c1` (racemic) [Example 95, 2-fluoro-N-[4-(3H-imidazo[4,5-c]pyridin-2-yl)-9H-fluoren-9(R,S)-yl]-isonicotinamide]: 1 to 10 µM.
Consider `O=C(NCc1ccc(F)cc1)NC1c2ccccc2-c2c(-c3nc4ccncc4[nH]3)cccc21` (racemic) [Example 75, 1-(4-fluorobenzyl)-3-[4-(3H-imidazo[4,5-c]pyridin-2-yl)-9H-fluoren-9(R,S)-yl]-urea], for which the IC50 lay in the range of 10 to 100 µM.
Turning to `O=C(NC1c2ccccc2-c2c(-c3nc4ccncc4[nH]3)cccc21)c1c(Br)cnc2[nH]cnc12` (racemic) [Example 118, [4-(3H-imidazo[4,5-c]pyridin-2-yl)-9H-fluoren-9(R,S)-yl]amide of 6-bromo-3H-imidazo[4,5-b]pyridine-7-carboxylic acid], the IC50 was < 1 µM.
As for `Cc1ccc2c(C(=O)NC3c4ccccc4-c4c(-c5nc6ccncc6[nH]5)cccc43)cccc2n1` (stereo not shown) [Example 90, [4-(3H-imidazo[4,5-c]pyridin-2-yl)-9H-fluoren-9-yl]amide of 2-methyl-quinoline-5-carboxylic acid], the IC50 lay in the range of 1 to 10 µM.
With `O=C(O)C1c2ccccc2-c2c(-c3nc4cnccc4[nH]3)cccc21` (racemic) [Example 29, hydrochloride of 4-(1H-imidazo[4,5-c]pyridin-2-yl)-9H-fluorene-9(R,S)-carboxylic acid] the figure was 10 to 100 µM.
On to `O=C(NC1c2ccccc2-c2c(-c3nc4ccc(F)cc4[nH]3)cccc21)c1cccc2ncccc12` (racemic) [Example 84, [4-(6-fluoro-1H-benzimidazol-2-yl)-9H-fluoren-9(R,S)-yl]amide of quinoline-5-carboxylic acid], for which the IC50 was 1 to 10 µM.
Next, `O=CNC1c2ccccc2-c2c(-c3nc4cnccc4[nH]3)cccc21` (racemic) [Example 12, N-[4-(3H-imidazo[4,5-c]pyridin-2-yl)-9H-fluoren-9(R,S)-yl]-formamide]: 10 to 100 µM; `O=C(NC1c2ccccc2-c2c(-c3nc4ccncc4[nH]3)cccc21)c1cccc2cnccc12` (racemic) [Example 35, [4-(3H-imidazo[4,5-c]pyridin-2-yl)-9H-fluoren-9(R,S)-yl]amide of isoquinoline-5-carboxylic acid]: 10 to 100 µM; `COc1ccc2nc(-c3cccc4c3-c3ccccc3C4NC(=O)c3ccncc3)[nH]c2c1` (racemic) [Example 106, N-[4-(6-methoxy-1H-benzimidazol-2-yl)-9H-fluoren-9(R,S)-yl]-isonicotinamide]: 1 to 10 µM.
Next, `O=C(NC1c2ccccc2-c2c(-c3nc4ccncc4[nH]3)cccc21)C1CCOCC1` (racemic) [Example 32, [4-(3H-imidazo[4,5-c]pyridin-2-yl)-9H-fluoren-9(R,S)-yl]amide of tetrahydropyran-4-carboxylic acid]: 10 to 100 µM; `c1cncc(CON=C2c3ccccc3-c3c2cccc3-c2nc3cnccc3[nH]2)c1` (mixture of isomers) [Example 11, O-(pyridin-3-yl)methyl 4-(3H-imidazo[4,5-c]pyridin-2-yl)-fluoren-9-one oxime (Z, E)]: 1 to 10 µM.
As for `Cc1noc(C)c1NC(=O)NC1c2ccccc2-c2c(-c3nc4ccncc4[nH]3)cccc21` (racemic) [Example 76, 1-(3,5-dimethyl-isoxazol-4-yl)-3-[4-(3H-imidazo[4,5-c]pyridin-2-yl)-9H-fluoren-9(R,S)-yl]-urea], the IC50 is 10 to 100 µM.
Regarding `O=C(NC1c2ccccc2-c2c(-c3nc4ccncc4[nH]3)cccc21)c1ccncc1` (racemic) [Example 47, N-[4-(3H-imidazo[4,5-c]pyridin-2-yl)-9H-fluoren-9(R,S)-yl]-isonicotinamide], the concentration for half-maximal inhibition (IC50) is < 1 µM.
Next, `CC(C)(C)OC(=O)N[C@@H](CC(N)=O)C(=O)NC1c2ccccc2-c2c(-c3nc4cnccc4[nH]3)cccc21` (stereo partly drawn) [Example 57, tert-butyl ester of {(S)-2-carbamoyl-1-[4-(3H-imidazo[4,5-c]pyridin-2-yl)-9H-fluoren-9(R,S)-ylcarbamoyl]-ethyl}-carbamoic acid]: 1 to 10 µM.
For `O=C(NC1c2ccccc2-c2c(-c3nc4ccccc4[nH]3)cccc21)c1cccc2ncccc12` (racemic) [Example 83, [4-(1H-benzimidazol-2-yl)-9H-fluoren-9(R,S)-yl]amide of quinoline-5-carboxylic acid], the half-inhibitory concentration (IC50) fell in the range of 10 to 100 µM.
Next, `O=C(NC1c2ccccc2-c2c(-c3nc4ccncc4[nH]3)cccc21)c1cccc2c1C=CCO2` (racemic) [Example 38, [4-(3H-imidazo[4,5-c]pyridin-2-yl)-9H-fluoren-9(R,S)-yl]amide trifluoroacetate of 2H-1-benzopyran-5-carboxylic acid]: 1 to 10 µM.
Next, `O=C(NCc1ccco1)NC1c2ccccc2-c2c(-c3nc4ccncc4[nH]3)cccc21` (racemic) [Example 74, 1-furan-2-ylmethyl-3-[4-(3H-imidazo[4,5-c]pyridin-2-yl)-9H-fluoren-9(R,S)-yl]-urea]: 10 to 100 µM; `ON=C1c2ccccc2-c2c1cccc2-c1nc2ccc(O)cc2[nH]1` (racemic) [Example 107, 4-(6-hydroxy-1H-benzimidazol-2-yl)-fluoren-9-one oxime (Z,E)]: 10 to 100 µM; `O=C(NC1c2ccccc2-c2c(-c3nc4ccncc4[nH]3)cccc21)c1ccnc2ncccc12` (racemic) [Example 97, hydrochloride of [4-(3H-imidazo[4,5-c]pyridin-2-yl)-9H-fluoren(R,S)-9-yl]amide of 1,8-naphthyridine-4-carboxylic acid]: 1 to 10 µM.
`O=C1CNC(=O)N1C1c2ccccc2-c2c(-c3nc4ccncc4[nH]3)cccc21` (racemic) [Example 80, 3-[4-(3H-imidazo[4,5-c]pyridin-2-yl)-9H-fluoren-9(R,S)-yl]-imidazolidine-2,4-dione]: the IC50 lay within 10 to 100 µM.
With `c1ccc(CCNC2c3ccccc3-c3c(-c4nc5cnccc5[nH]4)cccc32)cc1` (racemic) [Example 16, N-[4-(3H-imidazo[4,5-c]pyridin-2-yl)-9H-fluoren-9(R,S)-yl]-phenethyl-amine] the figure was 10 to 100 µM; with `OC=C1c2ccccc2-c2c1cccc2-c1nc2cnccc2[nH]1` (mixture of isomers) [Example 13, [4-(1H-imidazo[4,5-c]pyridin-2-yl)-fluoren-(9)-ylidene]-methanol, equimolecular mixture of the Z and E isomers], 10 to 100 µM.
With `O=C1CCc2c1cccc2C(=O)NC1c2ccccc2-c2c(-c3nc4cnccc4[nH]3)cccc21` (racemic) [Example 60, [4-(3H-imidazo[4,5-c]pyridin-2-yl)-9H-fluoren-9(R,S)-yl]amide of 1-oxo-indan-4-carboxylic acid] the figure was 1 to 10 µM.
